Results: patent US20170304309A1, “CAFFEINE FOR THE TREATMENT OF MYOTONIC DYSTROPHY TYPE 1 AND TYPE 2” (UNIVERSITAT DE VALÈNCIA, priority 2014, published 2017)

Key:
[1] = tested on: human MBNL1 promoter under Drosophila muscleblind ME enhancer (eGFP reporter); experiment: eGFP reporter expression in ME:hsaP1-eGFP transgenic flies; type: in vivo; conditions: heterozygous ME:hsaP1-eGFP flies, 25 mg/ml caffeine in food, 8 h, vs sucrose
DM1 model flies = experiment: Climbing assay in DM1 model flies; type: in vivo, Drosophila; conditions: 1.72 mM caffeine in nutritive media vs DMSO
Method: Groups of ten 5-day-old males were transferred into vials of 1.5 cm in diameter and 25 cm in height, after a period of 24 hours without anesthesia. The height reached from the bottom of the vial by each fly in a period of 10 s was recorded with a camera. For each genotype, approximately 30 flies were tested. […] We used a t-test to assess the statistical difference between the two groups of flies, fed with or without compound.

CUG repeats = conditions: WO03/020977; cited from earlier work
normal fibroblasts = experiment: MTS cell viability of normal fibroblasts exposed to caffeine; type: cell-based, human; conditions: highest concentration (500 μM), 24 h, relative to cells not exposed to caffeine
Method: Cells were aliquoted in 96-well plate with 1.0×10^4 cells per well and incubated for 24 h. […] To measure cell viability, MTS tetrazolium salt was added to each well and was incubated for 4 h at 37° C. in a humidified chamber with 5% CO2. The conversion of MTS into soluble formazan (accomplished by dehydrogenase enzymes from metabolically active cells) was measured by absorbance at 490 nm (CellTiter 96® Aqueous Non-Radioactive Cell Profileration Assay, Promega). Data were transformed to percentage of survival relative to cells not exposed to caffeine, which established 100% viability.

[2] = tested on: CUG repeat RNA (6-FAM-CUG23); experiment: Fluorescence polarization assay with 6-FAM-CUG23 RNA; type: binding; conditions: increasing concentrations, up to twice those of positive control pentamidine
Method: This was assessed in fluorescence polarization spectroscopy experiments in which fluorescent CUG RNA probe (carboxyfluorescein (6-FAM)-labeled) was incubated in increasing concentrations of caffeine.
Carboxyfluorescein-labeled CUG RNA (23 CUG repeats; 6-FAM-CUG23) at 6 nM was incubated with caffeine at different concentrations in binding buffer (50 mM Tris-HCl pH 7.0, 250 mM NaCl, 50 μM ZnCl2, 10% glycerol, 1 mM DTT) on ice for 20 min in the dark. Polarization was measured in a EnVision® Multilabel Reader using as excitation filter FP480 and as emission filter FP535.

[3] = tested on: ribonuclear foci in DM1 fibroblasts; experiment: Ribonuclear foci detection by in situ hybridization in DM1 fibroblasts; conditions: caffeine in culture media, vs DMSO
Method: Cell model of the disease (provided by the D. Furling's laboratory, Institute of Myologie, Paris) consisted of normal and DM1 (1300 CTG repeats) immortalized (hTERT) skin fibroblasts expressing conditional MyoD. […] Fibroblasts were transdifferentiated in myoblasts by inducing expression of MyoD. Cells were plated in muscle differentiation medium (MDM) made of DMEM 4.5 g/L glucose with 1% P/S, 2% horse serum, 1% apo-transferrin (10 mg/ml), 0.1% insulin (10 mg/ml) and 0.02% doxycyclin (10 mg/ml) for 48 h. For compound testing fibroblasts were aliquoted in 24-well plate with 3.5×10^4 cells per well and were differentiated as before.

[4] = tested on: MBNL1 expression in human DM1 myoblasts; experiment: Immunodetection of MBNL1 in DM1 myoblasts; type: cell-based
Method: Fibroblasts were transdifferentiated in myoblasts by inducing expression of MyoD. Cells were plated in muscle differentiation medium (MDM) made of DMEM 4.5 g/L glucose with 1% P/S, 2% horse serum, 1% apo-transferrin (10 mg/ml), 0.1% insulin (10 mg/ml) and 0.02% doxycyclin (10 mg/ml) for 48 h. For compound testing fibroblasts were aliquoted in 24-well plate with 3.5×10^4 cells per well and were differentiated as before. […] Cells were then incubated with ABC solution (ABC kit, VECTASTAIN) for 30 min at room temperature, followed by PBT washes and incubation with streptavidin-FITC (1:1000) for 20 min.

foci = conditions: WO03/020977; cited from earlier work
CAG-CTG repeat sequences = conditions: high doses of caffeine, close to 2 mM; cited from earlier work
[5] = tested on: DM1 pathology (splicing defects); conditions: cited from earlier work
sodium channel = conditions: small studies; cited from earlier work

SMILES: Cn1c(=O)c2c(ncn2C)n(C)c1=O [caffeine]
- expression of the eGFP reporter, normalized to total protein [1]: significantly increase
- climbing velocity (DM1 model flies): significantly improved
- binding to CUG repeats (CUG repeats): not able to bind
- percentage of survival of normal fibroblasts (living cells) (normal fibroblasts): greater than 50%
- polarization values of 6-FAM-CUG RNA (binding to CUG repeats) [2]: did not increase
- mean number of ribonuclear foci per cell [3]: increased
- MBNL1 expression in the cytoplasm and in the cell nucleus ([4]; 125 and 250 μM caffeine, 48 h, vs DMSO alone): increased
- number of MBNL1-containing foci ([4]; caffeine-treated vs DMSO-treated cells): qualitatively higher
- number of foci (foci): increases
- increase of the rate of expansion (CAG-CTG repeat sequences): ~63%

SMILES: N=C(N)c1ccc(OCCCCCOc2ccc(C(=N)N)cc2)cc1 [pentamidine]
- rescue of DM1 pathology [5]: partial rescue

SMILES: Cc1cccc(C)c1OCC(C)N (stereo not drawn) [Mexiletine, mexiletine]
- myotonia (sodium channel): reduced
